Data on 16 compounds can be found in patent US20080200467A1, “SOLUBLE EPOXIDE HYDROLASE INHIBITORS” (Arete Therapeutics, Inc., priority 2006, published 2008).

Tested on in the first series: not given
Test: not given
Details: not given
Take `O=C(Nc1cccc(OCc2ccccc2)c1)C(=O)C12CC3CC(CC(C3)C1)C2` [Compound 13, 2-Adamantan-1-yl-N-(3-benzyloxy-phenyl)-2-oxo-acetamide]: the melting point (usually the temperature of the solid-liquid transition) was 106 to 107 °C.

Take `O=C(Nc1cccc(OCc2ccccc2)c1)C(O)C12CC3CC(CC(C3)C1)C2` (stereo not shown) [Compound 110, 2-Adamantan-1-yl-N-(3-benzyloxy-phenyl)-2-hydroxy-acetamide]: the melting point is 130 to 132 °C. Same read-out and setting: as for `O=C(Nc1ccc(-n2ccnc2)cc1)C(O)C12CC3CC(CC(C3)C1)C2` (stereo not shown) [Compound 119, 2-Adamantan-1-yl-2-hydroxy-N-(4-imidazol-1-yl-phenyl)-acetamide], the figure is 219 to 220 °C.

A further series concerns soluble epoxide hydrolase (sEH). In words: Fluorescent Assay for Mouse and Human Soluble Epoxide Hydrolase (CMNPC substrate). The series is classed as biochemical. Particulars: Concentration 500 nM. From the text:
Fluorescent Assay for Mouse and Human Soluble Epoxide Hydrolase Recombinant mouse sEH (MsEH) and human sEH (HsEH) were produced in a baculovirus expression system as previously reported. Grant et al., J. Biol. Chem., 268:17628-17633 (1993); Beetham et al., Arch. Biochem. Biophys., 305:197-201 (1993). The expressed proteins were purified from cell lysate by affinity chromatography. Wixtrom et al., Anal. Biochem., 169:71-80 (1988). Protein concentration was quantified using the Pierce BCA assay using bovine serum albumin as the calibrating standard. The preparations were at least 97% pure as judged by SDS-PAGE and scanning densitometry. They contained no detectable esterase or glutathione transferase activity which can interfere with the assay. The assay was also evaluated with similar results in crude cell lysates or homogenate of tissues. The IC50s for each inhibitor were according to the following procedure: [drawing 218] […] Jones P. D. et. al.; Analytical Biochemistry 2005; 343: pp. 66-75) Bis/Tris HCl 25 mM pH 7.0 containing 0.1 mg/mL of BSA (buffer […] at 0.25 mM in DMSO. Mother solution of enzyme in buffer A (Mouse sEH at 6 μg/mL and Human sEH at 5 μg/mL). Inhibitor dissolved in DMSO at the appropriate concentration. In a black 96 well plate, fill all the wells with 150 μL of buffer A. Add 2 μL of DMSO in well A2 and A3, and then add 2 μL of inhibitor solution in A1 and A4 through A12. Add 150 μL of buffer A in row A, then mix several time and transfer 150 μL to row B. Repeat this operation up to row H. The 150 μL removed from row H is discarded. Add 20 μL of buffer A in column 1 and 2, then add 20 μL of enzyme solution to column 3 to 12. Incubate the plate for 5 minutes in the plate reader at 30° C. During incubation prepare the working solution of substrate by mixing 3.68 mL of buffer A (4×0.920 mL) with 266 μL (2×133 μL) of substrate solution). At t=0, add 30 μL of working substrate solution with multi-channel pipette labeled “Briggs 303” and start the reading ([S]final: 5 μM). Read with ex: 330 nm (20 nm) and em: 465 nm (20 nm) every 30 second for 10 minutes. The velocities are used to analyze and calculate the IC50s. Tables 4-6 show the activity of compounds when tested with the assay at 50, 500, 5000, 50000, and 500000 nM.
As for `O=C(Nc1cccc(OCc2ccccc2)c1)C(O)C12CC3CC(CC(C3)C1)C2` (stereo not shown) [Compound 110, 2-Adamantan-1-yl-N-(3-benzyloxy-phenyl)-2-hydroxy-acetamide], the % Inhibition (commonly the drop in the measured response relative to a control, in per cent) was determined as 79%.

For the compound `COC(=O)CCCCCCCCCCCNC(=O)C(O)c1ccc(C(F)(F)F)cc1` (stereo not shown) [Compound 158, Methyl 12-(2-hydroxy-2-(4-(trifluoromethyl)phenyl)acetamido)dodecanoate], the “% Inhibition” value stood at 72%. Regarding `COC(=O)CCCCCCCCCCCNC(=O)C(O)CC12CC3CC(CC(C3)C1)C2` (stereo not shown) [Compound 160, Methyl 12-(3-adamantan-1-yl-2-hydroxypropanamido)dodecanoate], the “% Inhibition” value is 81%. The same measure, in the same setting: as for `COC(=O)CCCCCCCCCCCNC(=O)C(O)CCc1ccc(C(F)(F)F)cc1` (stereo not shown) [Compound 162, Methyl 12-(2-hydroxy-4-(4-(trifluoromethyl)phenyl)butanamido)dodecanoate], the figure is 78%.

The series is the same for the next values; noted with them: Concentration 5000 nM.
As for `O=C(Nc1cccc(OCc2ccccc2)c1)C(=O)C12CC3CC(CC(C3)C1)C2` [Compound 13, 2-Adamantan-1-yl-N-(3-benzyloxy-phenyl)-2-oxo-acetamide], the “% Inhibition” value is listed as 86%. On the same count and under the same terms, as for `O=C(NC1CCN(S(=O)(=O)c2ccc(Cl)cc2)CC1)C(O)CCC12CC3CC(CC(C3)C1)C2` (stereo not shown) [Compound 152, N-(1-(4-Chlorophenylsulfonyl)piperidin-4-yl)-4-adamantyl-2-hydroxybutanamide], the figure is 98%; as for `O=C(O)c1ccc(Oc2ccc(CCNC(=O)C(O)CCC34CC5CC(CC(C5)C3)C4)cc2)cc1` (stereo not shown) [Compound 154, 4-(4-(2-(4-Adamantan-1-yl-2-hydroxybutanamido)ethyl)phenoxy)benzoic acid], 81%; as for `CNS(=O)(=O)c1ccc(CCNC(=O)C(O)CCC23CC4CC(CC(C4)C2)C3)cc1` (stereo not shown) [Compound 156, 4-Adamantan-1-yl-2-hydroxy-N-(4-(N-methylsulfamoyl)phenethyl)butanamide], 79%. Still for that read-out and setting: as for `O=C(O)CCCCCCCCCCCNC(=O)C(O)c1ccc(C(F)(F)F)cc1` (stereo not shown) [Compound 159, 12-(2-Hydroxy-2-(4-(trifluoromethyl)phenyl)acetamido)dodecanoic acid], the figure is 86%; as for `O=C(O)CCCCCCCCCCCNC(=O)C(O)CC12CC3CC(CC(C3)C1)C2` (stereo not shown) [Compound 161, 12-(3-Adamantan-1-yl-2-hydroxypropanamido)dodecanoic acid], 90%; as for `O=C(O)CCCCCCCCCCCNC(=O)C(O)CCc1ccc(C(F)(F)F)cc1` (stereo not shown) [Compound 163, 12-(2-Hydroxy-4-(4-(trifluoromethyl)phenyl)butanamido)dodecanoicacid], 89%. On the same count and under the same terms, as for `O=C(O)CCCCCCCCCCCNC(=O)C(O)Cc1ccc(C(F)(F)F)cc1` (stereo not shown) [Compound 164, 12-(2-Hydroxy-3-(4-(trifluoromethyl)phenyl)propanamido)dodecanoicacid], the figure is 59%. Take `O=C(O)CCCCCCCCCCCNC(=O)C(O)CCC12CC3CC(CC(C3)C1)C2` (stereo not shown) [Compound 165, 12-(4-Adamantan-1-yl-2-hydroxybutanamido)dodecanoic acid]: the “% Inhibition” value turned out to be 86%.

The series is the same for the next values; noted with them: Concentration 50000 nM.
As for `O=C(Nc1ccc(-n2ccnc2)cc1)C(O)C12CC3CC(CC(C3)C1)C2` (stereo not shown) [Compound 119, 2-Adamantan-1-yl-2-hydroxy-N-(4-imidazol-1-yl-phenyl)-acetamide], the “% Inhibition” value is 98%.

For the next series the test system is unchanged. The series is described as above. Format: biochemical. Particulars: Concentration 2000 nM.
As to `O=C(CCC12CC3CC(CC(C3)C1)C2)C(=O)NCCc1ccc(OCc2ccccc2)cc1` [Compound 25], the “% Inhibition” value was 23%. On the same count and under the same terms, as for `O=C(NCCc1ccc(C(=O)N2CCOCC2)cc1)C(O)CCC12CC3CC(CC(C3)C1)C2` (stereo not shown) [Compound 157, 4-Adamantan-1-yl-2-hydroxy-N-(4-(morpholine-4-carbonyl)phenethyl)butanamide], the figure is 81%.
